Results on nine molecules are retold here after patent publication US20260242419A1, “A CYCLIC PEPTIDE FOR TRAPPING INTERLEUKIN-1 BETA” (Merck Sharp & Dohme LLC, priority 2023, published 2026).

Starred links: 1 amine or outer side, 2 acyl side, 3 side chain; linkers in the order of their positions; H or OH if unused. Non-standard residues stand in square brackets, D forms with d. Residues, ends and D or L forms follow the SMILES beside them. dPro(4R-(4-pyridylmethyl)) = O=C(O)[C@H]1C[C@@H](Cc2ccncc2)CN1; Trp(βS-Me,4-F) = C[C@@H](c1c[nH]c2cccc(F)c12)[C@H](N)C(=O)O; Bip(4'-COOH) = N[C@@H](Cc1ccc(-c2ccc(C(=O)O)cc2)cc1)C(=O)O; dPro(3S-(4-F-Bn)) = O=C(O)[C@@H]1NCC[C@@H]1Cc1ccc(F)cc1; X41 = O=C([C@@H](N[*:1])[C@@H](O)c1ccncc1)[*:2]; Ala(pyrimidin-5-yl) = N[C@@H](Cc1cncnc1)C(=O)O; Phe(4-COOH) = N[C@@H](Cc1ccc(C(=O)O)cc1)C(=O)O; X24 = NC(=O)c1ncc(C[C@H](N[*:1])C(=O)[*:2])cn1; Bip = N[C@@H](Cc1ccc(-c2ccccc2)cc1)C(=O)O; Pro(cis-4-F) = O=C(O)[C@@H]1C[C@H](F)CN1; Met(O2) = CS(=O)(=O)CC[C@H](N)C(=O)O; d(αMeF) = C[C@@](N)(Cc1ccccc1)C(=O)O; cisHyp = O=C(O)[C@@H]1C[C@H](O)CN1; d(αMeD) = C[C@@](N)(CC(=O)O)C(=O)O; 4Pal = N[C@@H](Cc1ccncc1)C(=O)O; aThr = C[C@H](O)[C@H](N)C(=O)O; d(αMeS) = C[C@@](N)(CO)C(=O)O; NMeDab = CN[C@@H](CCN)C(=O)O; Dab = NCC[C@H](N)C(=O)O; Aib = CC(C)(N)C(=O)O

The target of this experiment is T1, IL-1β (Homo sapiens, UniProt P01584).
T1 construct: purchased BioLegend 579404
The experiment in a line: IL-6 assay in MRC5 cells: inhibition of IL-1β induced IL-6 secretion (AlphaLISA). It counts as cell-based. The note with it: inhibition of IL-1β induced IL-6 secretion in MRC5 cells; compound pre-incubated 1 hour with recombinant human IL-1β; read-out: MRC5 IC50. The procedure, abridged:
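Compound was pre-incubated 1 h at ambient temperature with recombinant human IL-1β at 2λ EC80 before adding human lung fibroblast MRC5 cells (3000/well) in EMEM with 0.025% BSA. After overnight culture at 37 °C, 5% CO2, secreted IL-6 in conditioned medium was measured by AlphaLISA; IC50 from 4-parameter logistic fits.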

T1 sequence (P01584 117-269): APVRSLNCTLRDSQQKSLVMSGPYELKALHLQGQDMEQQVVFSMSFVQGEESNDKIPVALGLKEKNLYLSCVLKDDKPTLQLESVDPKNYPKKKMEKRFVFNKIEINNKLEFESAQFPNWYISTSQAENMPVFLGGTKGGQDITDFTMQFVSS

With `C[C@@H](c1c[nH]c2cccc(F)c12)[C@@H]1NC(=O)[C@@H]2C[C@H](F)CN2C(=O)CNC(=O)[C@H](Cc2ccc(C(=O)O)cc2)NC(=O)[C@H](Cc2ccncc2)NC(=O)[C@H](Cc2ccc(-c3ccc(C(=O)O)cc3)cc2)NC(=O)[C@H]2C[C@@H](Cc3ccncc3)CN2C(=O)CNC(=O)[C@H](CCN)NC(=O)[C@H](CCC(N)=O)NC(=O)[C@H](CC(=O)O)NC(=O)[C@@](C)(Cc2ccccc2)NC(=O)[C@H](Cc2c[nH]c3ccccc23)NC(=O)[C@H](CO)NC(=O)C(C)(C)NC1=O` [Example 259] (cyclo([Bip(4'-COOH)][4Pal][Phe(4-COOH)]G[Pro(cis-4-F)][Trp(βS-Me,4-F)][Aib]SW[d(αMeF)]DQ[Dab]G[dPro(4R-(4-pyridylmethyl))])), the IC50 was found to be 0.014 nM.

With `COC[C@@]1(C)NC(=O)[C@H](Cc2c[nH]c3ccccc23)NC(=O)[C@H](CO)NC(=O)C(C)(C)NC(=O)[C@H]([C@@H](C)c2c[nH]c3cccc(F)c23)NC(=O)[C@@H]2C[C@H](F)CN2C(=O)CNC(=O)[C@H](Cc2ccc(C(=O)O)cc2)NC(=O)[C@H](Cc2ccncc2)NC(=O)[C@H](Cc2ccc(-c3ccc(C(=O)O)cc3)cc2)NC(=O)[C@H]2C[C@@H](Cc3ccncc3)CN2C(=O)CNC(=O)[C@H](CCN)NC(=O)[C@H](CCC(N)=O)NC(=O)[C@H](Cc2cncnc2)NC1=O` [Example 260] (cyclo([Bip(4'-COOH)][4Pal][Phe(4-COOH)]G[Pro(cis-4-F)][Trp(βS-Me,4-F)][Aib]SW[d(αMeS)](Me)[Ala(pyrimidin-5-yl)]Q[Dab]G[dPro(4R-(4-pyridylmethyl))])), the IC50 worked out at 0.013 nM.

For the molecule `COC[C@@]1(C)NC(=O)[C@H](Cc2c[nH]c3ccccc23)NC(=O)[C@H](CO)NC(=O)C(C)(C)NC(=O)[C@H]([C@@H](C)c2c[nH]c3cccc(F)c23)NC(=O)[C@@H]2C[C@H](F)CN2C(=O)CNC(=O)[C@H](Cc2ccc(C(=O)O)cc2)NC(=O)[C@H](Cc2ccncc2)NC(=O)[C@H](Cc2ccc(-c3ccc(C(=O)O)cc3)cc2)NC(=O)[C@H]2C[C@@H](Cc3ccncc3)CN2C(=O)CNC(=O)[C@H](CCN)NC(=O)[C@H](CCC(N)=O)NC(=O)[C@H]([C@H](C)O)NC1=O` [Example 261] (cyclo([Bip(4'-COOH)][4Pal][Phe(4-COOH)]G[Pro(cis-4-F)][Trp(βS-Me,4-F)][Aib]SW[d(αMeS)](Me)[aThr]Q[Dab]G[dPro(4R-(4-pyridylmethyl))])), the concentration for half-maximal inhibition (IC50) was 0.017 nM.

Consider `C[C@@H](c1c[nH]c2cccc(F)c12)[C@@H]1NC(=O)[C@@H]2C[C@H](F)CN2C(=O)CNC(=O)[C@H](Cc2ccc(C(=O)O)cc2)NC(=O)[C@H](Cc2ccncc2)NC(=O)[C@H](Cc2ccc(-c3ccc(C(=O)O)cc3)cc2)NC(=O)[C@H]2C[C@@H](Cc3ccncc3)CN2C(=O)CNC(=O)[C@H](CCN)N(C)C(=O)[C@H](CCC(N)=O)NC(=O)[C@H](Cc2cncnc2)NC(=O)C(C)(C)NC(=O)[C@H](Cc2c[nH]c3ccccc23)NC(=O)[C@H](CO)NC(=O)C(C)(C)NC1=O` [Example 262] (cyclo([Bip(4'-COOH)][4Pal][Phe(4-COOH)]G[Pro(cis-4-F)][Trp(βS-Me,4-F)][Aib]SW[Aib][Ala(pyrimidin-5-yl)]Q[NMeDab]G[dPro(4R-(4-pyridylmethyl))])), for which the IC50 is 0.02 nM.

`C[C@@H](c1c[nH]c2cccc(F)c12)[C@@H]1NC(=O)[C@@H]2C[C@H](F)CN2C(=O)CNC(=O)[C@H](Cc2ccc(C(=O)O)cc2)NC(=O)[C@H](Cc2ccncc2)NC(=O)[C@H](Cc2ccc(-c3ccc(C(=O)O)cc3)cc2)NC(=O)[C@H]2[C@@H](Cc3ccc(F)cc3)CCN2C(=O)CNC(=O)[C@H](CCN)NC(=O)[C@H](CCC(N)=O)NC(=O)[C@H]([C@@H](O)c2ccncc2)NC(=O)[C@@](C)(CC(=O)O)NC(=O)[C@H](Cc2c[nH]c3ccccc23)NC(=O)[C@H](CO)NC(=O)C(C)(C)NC1=O` [Example 263] (cyclo([Bip(4'-COOH)][4Pal][Phe(4-COOH)]G[Pro(cis-4-F)][Trp(βS-Me,4-F)][Aib]SW[d(αMeD)][X41]Q[Dab]G[dPro(3S-(4-F-Bn))])): the IC50 came out at 0.017 nM.

As for `C[C@@H](c1c[nH]c2cccc(F)c12)[C@@H]1NC(=O)[C@@H]2C[C@H](O)CN2C(=O)CNC(=O)[C@H](Cc2ccc(C(=O)O)cc2)NC(=O)[C@H](Cc2ccncc2)NC(=O)[C@H](Cc2ccc(-c3ccccc3)cc2)NC(=O)[C@H]2C[C@@H](Cc3ccncc3)CN2C(=O)CNC(=O)[C@H](CCN)NC(=O)[C@H](CCC(N)=O)NC(=O)[C@H](Cc2cncnc2)NC(=O)[C@@](C)(CC(=O)O)NC(=O)[C@H](Cc2c[nH]c3ccccc23)NC(=O)[C@H](CO)NC(=O)C(C)(C)NC1=O` [Example 264] (cyclo([Bip][4Pal][Phe(4-COOH)]G[cisHyp][Trp(βS-Me,4-F)][Aib]SW[d(αMeD)][Ala(pyrimidin-5-yl)]Q[Dab]G[dPro(4R-(4-pyridylmethyl))])), the IC50 is 0.017 nM.

As for `C[C@@H](c1c[nH]c2cccc(F)c12)[C@@H]1NC(=O)[C@@H]2C[C@H](F)CN2C(=O)CNC(=O)[C@H](Cc2ccc(C(=O)O)cc2)NC(=O)[C@H](Cc2ccncc2)NC(=O)[C@H](Cc2ccc(-c3ccccc3)cc2)NC(=O)[C@H]2C[C@@H](Cc3ccncc3)CN2C(=O)CNC(=O)[C@H](CCN)NC(=O)[C@H](CCC(N)=O)NC(=O)[C@@H](CC(=O)O)NC(=O)C(C)(C)NC(=O)[C@H](Cc2c[nH]c3ccccc23)NC(=O)[C@H](CO)NC(=O)C(C)(C)NC1=O` [Example 265] (cyclo([Bip][4Pal][Phe(4-COOH)]G[Pro(cis-4-F)][Trp(βS-Me,4-F)][Aib]SW[Aib][dD]Q[Dab]G[dPro(4R-(4-pyridylmethyl))])), the IC50 was determined as 0.022 nM.

As for `C[C@@H](c1c[nH]c2cccc(F)c12)[C@@H]1NC(=O)[C@@H]2C[C@H](F)CN2C(=O)CNC(=O)[C@H](Cc2ccc(C(=O)O)cc2)NC(=O)[C@H](Cc2ccncc2)NC(=O)[C@H](Cc2ccc(-c3ccc(C(=O)O)cc3)cc2)NC(=O)[C@H]2C[C@@H](Cc3ccncc3)CN2C(=O)CNC(=O)[C@H](CCN)NC(=O)[C@H](CCC(N)=O)NC(=O)[C@H](CCS(C)(=O)=O)NC(=O)C(C)(C)NC(=O)[C@H](Cc2c[nH]c3ccccc23)NC(=O)[C@H](CO)NC(=O)C(C)(C)NC1=O` [Example 266] (cyclo([Bip(4'-COOH)][4Pal][Phe(4-COOH)]G[Pro(cis-4-F)][Trp(βS-Me,4-F)][Aib]SW[Aib][Met(O2)]Q[Dab]G[dPro(4R-(4-pyridylmethyl))])), the IC50 is 0.019 nM.

Regarding `C[C@@H](c1c[nH]c2cccc(F)c12)[C@@H]1NC(=O)[C@@H]2C[C@H](F)CN2C(=O)CNC(=O)[C@H](Cc2ccc(C(=O)O)cc2)NC(=O)[C@H](Cc2ccncc2)NC(=O)[C@H](Cc2ccc(-c3ccc(C(=O)O)cc3)cc2)NC(=O)[C@H]2C[C@@H](Cc3ccncc3)CN2C(=O)CNC(=O)[C@H](CCN)NC(=O)[C@H](CCC(N)=O)NC(=O)[C@H](Cc2cnc(C(N)=O)nc2)NC(=O)C(C)(C)NC(=O)[C@H](Cc2c[nH]c3ccccc23)NC(=O)[C@H](CO)NC(=O)C(C)(C)NC1=O` [Example 267] (cyclo([Bip(4'-COOH)][4Pal][Phe(4-COOH)]G[Pro(cis-4-F)][Trp(βS-Me,4-F)][Aib]SW[Aib][X24]Q[Dab]G[dPro(4R-(4-pyridylmethyl))])), the IC50 stood at 0.014 nM.
